Like-named read-outs stand apart in the source and are kept apart here.
Key:
α2C [1] = conditions: read-out: α2C (nM), literature Kb; literature Kb values; cited from earlier work
α2C-AR = target: T1, α2C-AR (Homo sapiens, UniProt P18825); assay type: binding; conditions: for Subtype Selectivity (α2A/α2C): ratio between Ki for α2A vs. α2C
T1 sequence (P18825 1-462): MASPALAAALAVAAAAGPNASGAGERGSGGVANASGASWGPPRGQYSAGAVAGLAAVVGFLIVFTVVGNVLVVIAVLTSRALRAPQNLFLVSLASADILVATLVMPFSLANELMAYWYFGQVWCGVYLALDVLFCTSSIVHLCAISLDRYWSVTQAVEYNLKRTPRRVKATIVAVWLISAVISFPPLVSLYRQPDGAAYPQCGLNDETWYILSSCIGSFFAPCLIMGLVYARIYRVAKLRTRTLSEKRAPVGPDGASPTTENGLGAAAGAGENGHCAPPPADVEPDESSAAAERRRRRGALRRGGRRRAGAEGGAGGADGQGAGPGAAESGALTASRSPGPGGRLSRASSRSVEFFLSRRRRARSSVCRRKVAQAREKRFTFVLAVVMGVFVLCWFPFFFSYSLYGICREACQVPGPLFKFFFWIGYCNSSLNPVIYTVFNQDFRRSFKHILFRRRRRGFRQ

α2A-AR = target: T2, α2A-AR (Homo sapiens, UniProt P08913); assay type: binding
T2 sequence (P08913 1-465): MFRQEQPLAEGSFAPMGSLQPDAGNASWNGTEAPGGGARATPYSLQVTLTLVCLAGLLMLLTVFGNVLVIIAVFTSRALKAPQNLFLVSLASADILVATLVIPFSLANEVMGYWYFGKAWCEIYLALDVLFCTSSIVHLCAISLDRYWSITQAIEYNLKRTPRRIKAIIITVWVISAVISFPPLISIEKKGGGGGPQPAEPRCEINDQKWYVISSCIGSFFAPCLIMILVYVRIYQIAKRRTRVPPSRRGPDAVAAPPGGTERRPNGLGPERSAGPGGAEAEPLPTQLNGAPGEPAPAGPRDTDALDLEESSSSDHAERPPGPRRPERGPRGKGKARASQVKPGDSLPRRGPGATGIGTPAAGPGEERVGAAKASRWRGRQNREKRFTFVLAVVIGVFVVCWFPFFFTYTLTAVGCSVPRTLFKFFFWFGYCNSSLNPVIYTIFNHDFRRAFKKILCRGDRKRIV

α2A [2] = conditions: read-out: α2A (nM), literature Kb; literature Kb values; cited from earlier work
α2A [3] = conditions: read-out: α2A (nM), literature Ki; literature Ki values; cited from earlier work
α2C [4] = conditions: read-out: α2C (nM), literature Ki; literature Ki values; cited from earlier work
α2C [5] = conditions: read-out: α2C (nM), literature Kd; literature Kd values; cited from earlier work
α2A [6] = conditions: read-out: α2A (nM), literature Kd; literature Kd values; cited from earlier work

Row | Structure (SMILES) | Kb (α2C [1]) [nM] | Ki (α2C-AR) [nM] | Subtype Selectivity (α2A/α2C) (α2C-AR) | Ki (α2A-AR) [nM] | Kb (α2A [2]) [nM] | Ki (α2A [3]) [nM] | Ki (α2C [4]) [nM] | Kd (α2C [5]) [nM] | Ki (α2C-AR; read-out: α2C (Ki), HEK293 membranes, 1 nM [3H]RX821002, Ki ± standard deviation) [nM] | Kd (α2A [6]) [nM] | Ki (α2A-AR; read-out: α2A (Ki), HEK293 membranes, 1 nM [3H]RX821002, Ki ± standard deviation) [nM]
1 | COCc1scnc1N1CCN(C[C@H]2COc3ccccc3O2)CC1 [Compound 1, (S)-4-(4-((2,3-dihydrobenzo[b][1,4]dioxin-2-yl)methyl)piperazin-1-yl)-5-(methoxymethyl)thiazole] | < 0.1 | 0.25 ± 0.01 | 4.24 | 1.06 ± 0.52 | 88 |  |  |  |  |  | 
2 | COCc1c(C)nn(C)c1N1CCN(C[C@H]2COc3ccccc3O2)CC1 [Compound 2, (S)-1-((2,3-dihydrobenzo[b][1,4]dioxin-2-yl)methyl)-4-(4-(methoxymethyl)-1,3-dimethyl-1H-pyrazol-5-yl)-piperazine] | 1.62 | 0.74 ± 0.1 | 16.6 | 12.3 ± 1.2 | 306 |  |  |  |  |  | 
3 | COc1ccccc1C1=CC(=O)N([C@H]2CCCN(C[C@H]3COc4ccccc4O3)C2)C1 [Compound 3, 1-((S)-1-(((S)-2,3-dihydrobenzo[b][1,4]dioxin-2-yl)methyl)piperidin-3-yl)-4-(2-methoxyphenyl)-1,5-dihydro-2H-pyrrol-2-one] | < 0.001 |  | 751,000 | 458 ± 26 | > 449 |  |  |  |  |  | 
4 | COc1cccc(-n2nc(C)cc2N2CCN(C[C@H]3COc4ccccc4O3)CC2)n1 [Compound 4, (S)-1-((2,3-dihydrobenzo[b][1,4]dioxin-2-yl)methyl)-4-(1-(6-methoxypyridin-2-yl)-3-methyl-1H-pyrazol-5-yl)piperazine] | 0.29 | 0.4 ± 0.07 | 6.93 | 2.77 ± 0.58 | 82 |  |  |  |  |  | 
5 | COCc1cccnc1N1CCN(C[C@H]2COc3ccccc3O2)CC1 [ORM-13070, (S)-1-((2,3-dihydrobenzo[b][1,4]dioxin-2-yl)methyl)-4-(3-(methoxymethyl)pyridin-2-yl)piperazine, reference compound] |  | 0.25 ± 0.09 | 11.2 | 2.8 ± 0.2 |  | 109 | 3.8 |  |  |  | 
6 | CCS(=O)(=O)N1CCC[C@@H]2CN3CCc4cc(OC)ccc4[C@@H]3C[C@@H]21 [RS79948, reference compound] |  |  | 0.55 |  |  |  |  | 0.77 | 0.29 ± 0.08 | 0.6 | 0.16 ± 0.12

From paper PMC12067315 (European journal of medicinal chemistry, 2022)
